What all share (experiment): drug sensitivity score (DSS) (DSS (unitless, 0-50 scale)); higher = more sensitive (stronger viability inhibition); extreme values may be limits of the assay
Common to all, as to conditions: 72 h; culture: 2D

One experiment concerns WM852. The essentials:
(§1)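 A 527-compound oncology library was screened in 384-well plates against melanoma cell lines and patient-derived melanoma cultures grown in 2D, the cultures at 1000–1500 cells per well. Each compound, in DMSO or water, was applied at five concentrations over a 10,000-fold range and incubated for 72 h at 37 °C before CellTiter-Glo luminescence readout of viability. A drug sensitivity score, a modified area-under-curve measure, was calculated from curves fitted in the in-house Breeze software.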

For another experiment, the system named is FM-MEL-2. The essentials: as §1
In another experiment the test system is FM-MEL-3. The essentials: as §1
The next experiment concerns FM-MEL-6. The essentials:
as §1

The test system of another experiment is WM165. The essentials: as §1
Another experiment concerns SK-MEL-2. The essentials: as §1
The test system of a further experiment is Bowes. The essentials: as §1
Another experiment has as its system SK-MEL-28. The essentials:
as §1

With `CCNC(=O)CCC/C=C\C[C@@H]1[C@@H](/C=C/[C@@H](O)CCc2ccccc2)[C@H](O)C[C@@H]1O` [Bimatoprost], the drug sensitivity score in the experiment with WM852, in the experiment on FM-MEL-2, with FM-MEL-3, with FM-MEL-6, in the experiment on WM165 and in the experiment with SK-MEL-2 was 0 in each case. Moreover, the drug sensitivity score in the experiment with Bowes and in the experiment with SK-MEL-28 was 0 in each case.

On to `Cc1sc2c(c1C)C(c1ccc(Cl)cc1)=N[C@@H](CC(=O)Nc1ccc(O)cc1)c1nnc(C)n1-2` [Birabresib], for which the drug sensitivity score in the experiment on WM852 stood at 0; in the experiment with FM-MEL-2, 6.2; in the experiment with FM-MEL-3, 7.6; in the experiment with FM-MEL-6 it was 6.7; in the experiment with WM165, 12.1; with SK-MEL-2, 0. Further, the drug sensitivity score came out at 4.5 in the experiment with Bowes and 2.9 in the experiment with SK-MEL-28.

With `CC[C@H](NC(=O)[C@H](C)NC)C(=O)N1C[C@@H](O)C[C@H]1Cc1c(-c2[nH]c3cc(F)ccc3c2C[C@@H]2C[C@H](O)CN2C(=O)[C@H](CC)NC(=O)[C@H](C)NC)[nH]c2cc(F)ccc12` [Birinapant], the drug sensitivity score in the experiment with WM852 turned out to be 0; in the experiment with FM-MEL-2, 8; in the experiment on FM-MEL-3 it was 1.4; in the experiment with FM-MEL-6, 3; in the experiment on WM165 it was 0; with SK-MEL-2, 3.9. Also, the drug sensitivity score in the experiment on Bowes and in the experiment on SK-MEL-28 was 0 in each case.

On to `Cc1c(N)nc([C@H](CC(N)=O)NC[C@H](N)C(N)=O)nc1C(=O)N[C@H](C(=O)N[C@H](C)[C@@H](O)[C@H](C)C(=O)N[C@H](C(=O)NCCc1nc(-c2nc(C(=O)NCCC[S+](C)C)cs2)cs1)[C@@H](C)O)[C@@H](OC1OC(CO)C(O)C(O)C1OC1OC(CO)C(O)C(OC(N)=O)C1O)c1cnc[nH]1` (stereo not given in full) [Bleomycin], for which the drug sensitivity score was 0 in the experiment on WM852; 2.4 with FM-MEL-2; 5 in the experiment with FM-MEL-3; 2.1 in the experiment on FM-MEL-6; 9.4 with WM165; 0 in the experiment on SK-MEL-2. Also, the drug sensitivity score in the experiment with Bowes came out at 0.9; in the experiment on SK-MEL-28 it was 1.8.

As to `CC(C)C[C@H](NC(=O)[C@H](Cc1ccccc1)NC(=O)c1cnccn1)B(O)O` [Bortezomib], the drug sensitivity score with WM852 is 11.8; in the experiment on FM-MEL-2, 14.1; with FM-MEL-3 it was 28.4; in the experiment with FM-MEL-6, 29; in the experiment with WM165, 27; in the experiment with SK-MEL-2, 26.5. The values for the drug sensitivity score in the experiment with Bowes and in the experiment on SK-MEL-28 were 24.9 and 27.3, respectively.

Take `COc1cc(Nc2c(C#N)cnc3cc(OCCCN4CCN(C)CC4)c(OC)cc23)c(Cl)cc1Cl` [Bosutinib]: the drug sensitivity score is 7.6 in the experiment with WM852; 5 in the experiment with FM-MEL-2; 3.2 in the experiment on FM-MEL-3; 4.9 in the experiment on FM-MEL-6; 8.4 in the experiment on WM165; 4.7 in the experiment on SK-MEL-2. In addition, the drug sensitivity score was found to be 8.2 with Bowes and 8.7 in the experiment on SK-MEL-28.

Turning to `COc1cc(N2CCC(N3CCN(C)CC3)CC2)ccc1Nc1ncc(Cl)c(Nc2ccccc2P(C)(C)=O)n1` [Brigatinib], the drug sensitivity score is 3.1 with WM852; 0.9 in the experiment with FM-MEL-2; 3.3 with FM-MEL-3; 1.6 with FM-MEL-6; 1.5 with WM165; 0.2 in the experiment with SK-MEL-2. The drug sensitivity score is 1.1 with Bowes and 0.5 with SK-MEL-28.

Regarding `Cc1cc2c(F)c(Oc3ncnn4cc(OC[C@@H](C)O)c(C)c34)ccc2[nH]1` [Brivanib], the drug sensitivity score in the experiment on WM852, in the experiment on FM-MEL-2, in the experiment with FM-MEL-3, with FM-MEL-6, in the experiment with WM165 and in the experiment on SK-MEL-2 was 0 throughout. In addition, the drug sensitivity score in the experiment with Bowes and with SK-MEL-28 was 0 throughout.

Regarding `CCC/C=C/C=C/C(=O)O[C@H]1/C(=C/C(=O)OC)C[C@H]2C[C@H]([C@@H](C)O)OC(=O)C[C@H](O)C[C@@H]3C[C@H](OC(C)=O)C(C)(C)[C@](O)(C[C@@H]4C/C(=C/C(=O)OC)C[C@H](/C=C/C(C)(C)[C@]1(O)O2)O4)O3` [Bryostatin 1], the drug sensitivity score stood at 4.3 with WM852; 0 in the experiment on FM-MEL-2; 0.1 in the experiment on FM-MEL-3; 5.8 in the experiment on FM-MEL-6; 2 in the experiment with WM165; 0 in the experiment on SK-MEL-2. In addition, the values for the drug sensitivity score in the experiment on Bowes and with SK-MEL-28 were 1.7 and 1.9, respectively.

As for `Nc1cc(C(F)(F)F)c(-c2cc(N3CCOCC3)nc(N3CCOCC3)n2)cn1` [Buparlisib], the drug sensitivity score in the experiment with WM852 was found to be 6; with FM-MEL-2, 6.5; in the experiment on FM-MEL-3 it was 6.7; in the experiment on FM-MEL-6 it was 6; in the experiment with WM165, 6.6; in the experiment with SK-MEL-2, 3.3. Besides, the drug sensitivity score turned out to be 5.1 in the experiment on Bowes and 6.5 with SK-MEL-28.

Source of the values: the supplement of paper PMC8633005.
